Test systems include A498; ACHN; BT-549; DU-145; HCT-15; HL-60; HOP-62; Hs-578T; IGROV-1; K562; MCF7; MDA-MB-231; MDA-MB-435; NCI-H23; OVCAR-3; OVCAR-4; OVCAR-8; SK-MEL-2; UO-31; KM12.
Holding throughout (assay): inhibition of tumour cell growth, NCI panel, 48 h

Data on eleven molecules can be found in ChEMBL document CHEMBL1201862, “PubChem BioAssay data set” (2004).

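Briefly, cells in 96-well plates were exposed to five compound concentrations for 48 h, and endpoints were estimated by linear interpolation. Here, GI50 denotes the concentration required for 50% inhibition of growth.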 The source made the active and inactive calls. Rule as the data show it: active = GI50 up to about 1.1 µM and inactive = higher.

In the case of `COc1cc(OC)cc(-c2cc(=O)c3c(OC)c(OC)c(OC)c(OC)c3o2)c1`, the GI50 in the assay on A498 is 23 µM (inactive); with ACHN, 27.2 µM (inactive); in the assay on BT-549 it was 41.1 µM (inactive); in the assay on DU-145, 30.2 µM (inactive); in the assay with HCT-15, 33.3 µM; with HL-60, 7.26 µM (inactive). The GI50 with HOP-62 was 32.6 µM (inactive); in the assay with Hs-578T, 29.3 µM (inactive); in the assay with IGROV-1 it was 32.2 µM (inactive); in the assay with K562 it was 20.7 µM (inactive); in the assay with MCF7, 63.7 µM (inactive); in the assay with MDA-MB-231 it was 59.7 µM (inactive). The GI50 in the assay with MDA-MB-435 is 32.8 µM (inactive); in the assay with NCI-H23 it was 52.1 µM (inactive); in the assay on OVCAR-3, 18.8 µM (inactive); in the assay on OVCAR-4 it was 22.9 µM (inactive); in the assay on OVCAR-8 it was 33.6 µM (inactive); in the assay with SK-MEL-2 it was 18 µM (inactive). The GI50 in the assay on UO-31 is 10.8 µM (inactive).
As for `Cc1cc(S(=O)(=O)Nc2nnc3c(Cl)cc(C(F)(F)F)cn23)c(S)cc1Cl`, the GI50 with A498 is > 100 µM (inactive); with ACHN it was > 76.7 µM (inactive); in the assay on BT-549, 25.9 µM (inactive); in the assay on DU-145 it was > 91.8 µM (inactive); in the assay with HCT-15, 58.1 µM; with HL-60, > 100 µM (inactive). Besides, the GI50 in the assay on HOP-62 was 54.5 µM (inactive); with Hs-578T, > 64.9 µM (inactive); in the assay with IGROV-1, 50.5 µM (inactive); in the assay on K562 it was 66.2 µM (inactive); in the assay with KM12 it was 39.3 µM (inactive); in the assay with MCF7 it was > 61.1 µM (inactive). Also, the GI50 was > 59.3 µM (inactive) in the assay with MDA-MB-231; 45.5 µM (inactive) with MDA-MB-435; 95.1 µM (inactive) with NCI-H23; 49.9 µM (inactive) in the assay on OVCAR-3; 66.5 µM (inactive) in the assay on OVCAR-4; 50.4 µM (inactive) in the assay with OVCAR-8. The GI50 is 48.4 µM (inactive) in the assay with SK-MEL-2 and 30.2 µM (inactive) with UO-31.
Consider `CCSc1nc(C)nc2c1sc1nc3ccccc3n12`, for which the GI50 with A498 was > 100 µM (inactive); with ACHN, > 100 µM (inactive); in the assay on BT-549, > 100 µM (inactive); in the assay on DU-145, > 100 µM (inactive); in the assay on HCT-15, greater than 100 µM; in the assay on HL-60, > 28.1 µM (inactive). The GI50 in the assay on Hs-578T is 24.2 µM (inactive); with IGROV-1 it was > 100 µM (inactive); in the assay on K562, > 100 µM (inactive); in the assay with KM12 it was > 68.1 µM (inactive); in the assay on MCF7 it was > 100 µM (inactive); in the assay with MDA-MB-231 it was > 100 µM (inactive). Besides, the GI50 in the assay with MDA-MB-435 is > 100 µM (inactive); in the assay with NCI-H23, > 100 µM (inactive); in the assay with OVCAR-3 it was > 100 µM (inactive); with OVCAR-4 it was > 78.3 µM (inactive); in the assay on OVCAR-8, > 100 µM (inactive); in the assay on SK-MEL-2 it was > 100 µM (inactive). Also, in the assay with UO-31, the GI50 was > 100 µM (inactive).
With `N=c1c2c3n(c4c(=O)n(-c5ccccc5)c(=S)n(c(=O)n1-c1ccccc1)c24)CCCCC3`, the GI50 with A498 was > 96.2 µM (inactive); in the assay with ACHN, > 100 µM (inactive); in the assay on BT-549, > 100 µM (inactive); in the assay on DU-145 it was > 100 µM (inactive); with HCT-15 it was greater than 100 µM; in the assay on HL-60, > 100 µM (inactive). Further, the GI50 is 99.3 µM (inactive) in the assay on HOP-62; > 100 µM (inactive) in the assay with Hs-578T; > 100 µM (inactive) in the assay with IGROV-1; > 100 µM (inactive) with KM12; > 100 µM (inactive) in the assay on MCF7; > 100 µM (inactive) in the assay on MDA-MB-231. The GI50 in the assay on MDA-MB-435, with NCI-H23, with OVCAR-3, in the assay with OVCAR-4, in the assay with OVCAR-8 and with SK-MEL-2 was > 100 µM (inactive) in each case. The GI50 with UO-31 is > 100 µM (inactive).
For the molecule `O=C(Nc1nc(C23CC4CC(CC(C4)C2)C3)cs1)c1cc2cc([N+](=O)[O-])ccc2oc1=O`, the GI50 is 36.3 µM (inactive) in the assay with A498; 47.3 µM (inactive) in the assay with ACHN; 14.3 µM (inactive) in the assay on BT-549; 86.7 µM (inactive) in the assay on DU-145; 85.1 µM in the assay on HCT-15; > 100 µM (inactive) in the assay on HL-60. The GI50 with HOP-62 is 39.7 µM (inactive); with Hs-578T it was 20.3 µM (inactive); in the assay on IGROV-1, 45.3 µM (inactive); with K562 it was > 100 µM (inactive); in the assay on KM12 it was > 100 µM (inactive); with MCF7, 56.8 µM (inactive). Besides, the GI50 in the assay with MDA-MB-231 is 20.9 µM (inactive); in the assay on MDA-MB-435, 73.8 µM (inactive); with NCI-H23, 77.1 µM (inactive); in the assay with OVCAR-3 it was 73.3 µM (inactive); with OVCAR-4 it was 17.8 µM (inactive); in the assay with OVCAR-8, > 100 µM (inactive). In the assay on UO-31, the GI50 was > 100 µM (inactive).
`CO/N=C(\C)c1cccc(Nc2nc3ccccc3c3occc23)c1`: the GI50 is 3.61 µM (inactive) in the assay on A498; 14 µM (inactive) in the assay with ACHN; 13.5 µM (inactive) with BT-549; 15.8 µM (inactive) in the assay with DU-145; 10.4 µM in the assay on HCT-15; 27.7 µM (inactive) in the assay with HL-60. Moreover, the GI50 in the assay with HOP-62 was 15.4 µM (inactive); in the assay on Hs-578T it was 10.9 µM (inactive); with K562 it was 16.4 µM (inactive); in the assay on KM12, 7.59 µM (inactive); in the assay with MCF7, 18.1 µM (inactive); in the assay on MDA-MB-231, 10.4 µM (inactive). Further, the GI50 in the assay on MDA-MB-435 is 12.2 µM (inactive); in the assay with OVCAR-3, 16.3 µM (inactive); in the assay with OVCAR-4, 14.8 µM (inactive); in the assay on OVCAR-8 it was 17.1 µM (inactive); in the assay with UO-31 it was < 0.01 µM (active).
With `CCOc1ccc(NC(=O)/C=C/c2ccco2)cc1`, the GI50 with A498 was 42.7 µM (inactive); in the assay with ACHN, > 100 µM (inactive); in the assay on BT-549, 38 µM (inactive); with DU-145, 47 µM (inactive); with HCT-15, 41.2 µM; in the assay with HL-60, 11.9 µM (inactive). For the same molecule, the GI50 was 65 µM (inactive) in the assay with Hs-578T; > 100 µM (inactive) with IGROV-1; 24.2 µM (inactive) in the assay on K562; 30.5 µM (inactive) with KM12; 75.2 µM (inactive) with MCF7; > 100 µM (inactive) with MDA-MB-231. For the same molecule, the GI50 is 5.98 µM (inactive) in the assay on MDA-MB-435; > 100 µM (inactive) in the assay on NCI-H23; > 10 µM (inactive) in the assay with OVCAR-3; 85.9 µM (inactive) with OVCAR-8; > 100 µM (inactive) with SK-MEL-2; 87.1 µM (inactive) with UO-31.
In the case of `O=[N+]([O-])c1cccc(-c2cn3c(n2)Cc2ccccc2C3)c1`, the GI50 in the assay on A498 was 16.9 µM (inactive); in the assay on ACHN, > 100 µM (inactive); in the assay with BT-549, > 100 µM (inactive); with DU-145 it was > 100 µM (inactive); in the assay with HCT-15, greater than 100 µM; with HL-60, > 100 µM (inactive). The GI50 was 29.1 µM (inactive) in the assay on HOP-62; 85.3 µM (inactive) in the assay on Hs-578T; > 100 µM (inactive) with IGROV-1; > 100 µM (inactive) with K562; 24.9 µM (inactive) in the assay with KM12; 3.88 µM (inactive) in the assay with MCF7. Moreover, the GI50 in the assay on MDA-MB-231 was 18.8 µM (inactive); with MDA-MB-435 it was 83.4 µM (inactive); with NCI-H23, 59.6 µM (inactive); in the assay on OVCAR-4 it was > 100 µM (inactive); in the assay with OVCAR-8, 99.1 µM (inactive); with SK-MEL-2 it was 34.9 µM (inactive). Besides, in the assay on UO-31, the GI50 is 51.2 µM (inactive).
With `CSc1nc(SC)c2c(C)cn(COCCOC(=O)c3ccccc3)c2n1`, the GI50 with A498 was 42.6 µM (inactive); in the assay with ACHN, > 100 µM (inactive); in the assay on BT-549 it was > 100 µM (inactive); in the assay on DU-145, 69.8 µM (inactive); in the assay with HCT-15 it was greater than 100 µM; in the assay on HL-60, 36.7 µM (inactive). In addition, the GI50 in the assay on HOP-62 is > 100 µM (inactive); with Hs-578T, 54.1 µM (inactive); with IGROV-1, > 100 µM (inactive); in the assay on KM12, > 100 µM (inactive); with MCF7, 76.4 µM (inactive); with MDA-MB-231, > 100 µM (inactive). Further, the GI50 with MDA-MB-435, in the assay on NCI-H23, in the assay with OVCAR-3, in the assay on OVCAR-4, with OVCAR-8 and in the assay with SK-MEL-2 was > 100 µM (inactive) throughout. In addition, the GI50 in the assay on UO-31 is 44.3 µM (inactive).
For the molecule `O=C1CC(C(O)CO)CC(=O)N1` (stereo not drawn), the GI50 is > 100 µM (inactive) in the assay on A498; > 100 µM (inactive) with ACHN; > 100 µM (inactive) with BT-549; > 100 µM (inactive) in the assay on DU-145; greater than 100 µM with HCT-15; > 100 µM (inactive) in the assay on HL-60. Further, the GI50 with HOP-62, in the assay with Hs-578T, in the assay on IGROV-1, in the assay on K562, in the assay on KM12 and with MCF7 was > 100 µM (inactive) in each case. For the same molecule, the GI50 in the assay with MDA-MB-231, in the assay on MDA-MB-435, in the assay with NCI-H23, with OVCAR-3, with OVCAR-8 and in the assay with UO-31 was > 100 µM (inactive) each time.
Consider `CCC1OC2(C)CC(C#N)(C#N)C1(C#N)C(=N)O2` (stereo not drawn), for which the GI50 with A498, in the assay on ACHN, with BT-549, in the assay on DU-145, with HL-60 and with Hs-578T was > 100 µM (inactive) in each case. Moreover, the GI50 in the assay with IGROV-1, in the assay with K562, with KM12, in the assay with MCF7, in the assay with MDA-MB-231 and with MDA-MB-435 was > 100 µM (inactive) throughout. In addition, the GI50 in the assay on NCI-H23, in the assay with OVCAR-3, in the assay on SK-MEL-2 and in the assay on UO-31 was > 100 µM (inactive) in each case.
